A short description of assay [1]: Binding affinity to CTNI-CTNC N-domain chimera (unknown origin) assessed as dissociation constant. More on the design: species or system Homo sapiens.
The species named for another assay is Rattus norvegicus. Put plainly: Cardiovascular activity in rat ventricular trabeculae assessed as increase in calcium sensitivity of force development at 50 uM. The format is functional.
The species entered for a further assay is Bos taurus. Kind of assay: Modulation of bovine cardiac myofibrils ATPase activity at 50 uM relative to control. The note with it: filed as modulator.

The structures appear in SMILES notation. Activity calls are given as the source filed them. No cut-off for these calls is given here.

In general, Kd refers to the concentration at which binding is half-saturated.

Consider `NCCCCCCNS(=O)(=O)c1cccc(-c2ccc(F)cc2F)c1`, for which the Kd in assay [1] amounted to 200 µM. Also, in the assay listed under Rattus norvegicus, the outcome was Active. The molecule further returned an Activity in the assay listed under Bos taurus of 30%.
For the molecule `NCCCCCCCNS(=O)(=O)c1cccc(-c2ccc(F)cc2F)c1`, in assay [1], the Kd amounted to 120 µM. The Activity in the assay listed under Bos taurus turned out to be 30%.
For `NCCCCCCNS(=O)(=O)c1cccc2c(Cl)cccc12`, in assay [1], the equilibrium dissociation constant (Kd) was 470 µM.
Consider `NCCCCCCCCNS(=O)(=O)c1cccc(-c2ccc(F)cc2F)c1`, for which the Kd in assay [1] turned out to be 60 µM. Also, the Activity in the assay filed under Bos taurus turned out to be 30%.
